# Key:
# E. coli DPD2444 (yhcP−) = experiment: microbe, parasite or virus in culture; assay type: cell-based
# Protocol: (§1) Additional compounds were tested for growth inhibition of E. coli MG1655 (yhcP^+) and DPD2444 (yhcP^−) in Vogel-Bonner medium with glucose as the carbon source and with 0.01% tetrazolium violet added as an indicator of viability. A series of two-fold dilutions of each chemical was made to the wells of a clear 96-well microplate in 50 μl volume. To these wells was added 50 μl of an overnight culture in Vogel Bonner medium with glucose as a carbon source of either MG1655 or DPD2444 that had been previously diluted 500-fold into fresh medium. The plates were incubated at 37° C. without shaking for 16 to 18 hours. The purple color in each well was visually scored. A score of 4+ indicated full purple color equivalent to a no chemical control well. Scores of 3+, 2+, or 1+ indicated decreasing amounts of purple color. A score of − indicated the complete absence of color. The MIC was defined as the lowest tested concentration that gave complete absence of color. The rank of difference between strains was defined as the score of pigment color for E. coli MG1655 in wells containing the concentration of a given chemical at the MIC for DPD24444. When MG1655 had no color, the score was 0. When MG 1655 was scored at 1+, the score was 1, when scored at 2+, the score was 2, etc.
# E. coli MG1655 (yhcP+) = experiment: microbe, parasite or virus in culture; assay type: cell-based
# Protocol: as §1
# [1] = test system: yhcP gene (co-transcribed with yhcQ and yhcR); experiment: expression of yhcP upon treatment of E. coli cells with aromatic carboxylic acids; assay type: cell-based
# [2] = test system: E. coli strain DPD2444 (yhcP::TN<Kan>); experiment: MIC, 2-fold dilutions, Vogel-Bonner medium with 0.4% glucose; assay type: cell-based; conditions: Escherichia coli, read-out: MIC for pHBA
# Source text: The yhcP::TN<Kan> was introduced into E. coli strain MG1655 (obtained from Prof. Douglas Berg, Washington University School of Medicine, St. Louis, […].) by P1clr100 Cm mediated transduction to kanamycin resistance using phage lysates of E. coli strain DPD2443. One of the resultant kanamycin resistant transductants was named DPD2444.
# [3] = test system: E. coli strain DPD2443 (yhcP::TN<Kan> of DH5αE); experiment: zone of growth inhibition test on LB agar plates; assay type: cell-based; conditions: disk with 90 μmol pHBA sodium salt, 24 hr at 37° C.
# Protocol: (§2) A zone of growth inhibition test was done using 0.1 ml of overnight cultures in LB medium plated onto LB agar plates using 2.5 ml LB soft agar.
# [4] = test system: E. coli strain DH5αE (parental); experiment: zone of growth inhibition test on LB agar plates; assay type: cell-based; conditions: disk with 90 μmol pHBA sodium salt, 24 hr at 37° C.
# Protocol: as §2
# [5] = test system: E. coli strain DPD2444 (yhcP); experiment: Growth in LB medium in the presence of pHBA, scored visually; assay type: cell-based; further: key: ++++ indicates full turbidity; +++ indicates moderate, but visually less than full turbidity; + indicates very slight turbidity; − indicates no turbidity
# Source text: (§3) Strain DPD1818 carries a to/C::miniTn10 mutation in the MG1655 background. It was constructed by transduction of E. coli MG1655 using P1clr100 Cm phage grown on E. coli strain DE112 (Van Dyk et al. Appl. Environ. Microbiol. 60:1414-1420 (1994)), which carries a tolC::miniTn10 mutation, and selection for tetracycline resistance. Strain DPD2444, described above, carries a yhcP::TN<Kan> mutation. Strain DP2446 carries both the tolC::miniTn10 and yhcP::TN<Kan>. This strain was constructed using by P1clr100Cm mediated transduction of DE112 with phage grown on strain DPD2443 and selection for kanamycin resistance. Each of these mutant strains was grown overnight in LB medium at 37° C. […] The final volume in the wells of a 96-well microplate was 100 μl and the final dilution of the inoculum was 1 to 1000. This microplate was covered and incubated at 37° C. for 7 hours and then incubated at room temperature for 3 days. The growth in each well was then scored visually.
# [6] = test system: E. coli strain DPD2446 (tolC yhcP); experiment: as above; assay type: cell-based; further: key: ++++ indicates full turbidity; +++ indicates moderate, but visually less than full turbidity; + indicates very slight turbidity; − indicates no turbidity
# Source text: as §3
# [7] = test system: E. coli strain DPD1818 (tolC); experiment: as above; assay type: cell-based; further: key: ++++ indicates full turbidity; +++ indicates moderate, but visually less than full turbidity; + indicates very slight turbidity; − indicates no turbidity
# Source text: as §3
# [8] = test system: E. coli strain MG1655 (+); experiment: as above; assay type: cell-based; further: key: ++++ indicates full turbidity; +++ indicates moderate, but visually less than full turbidity; + indicates very slight turbidity; − indicates no turbidity
# Source text: as §3
# [9] = test system: yhcRQP-luxCDABE gene fusion in strain DPD2437 (yhcS−); experiment: Bioluminescence response of yhcRQP-luxCDABE gene fusion; assay type: cell-based, E. coli; conditions: LB pH 7.0, sodium salt
# Source text: (§4) Plasmid pDEW655 was constructed by ligating an E. coli chromosomal segment between nucleotides 3385829 and 3386761 according to the E. coli genomic sequence, which contains the promoter region of the putative yhcRQP operon and the entire yhcR gene and the 5′ end of the yhcQ gene, to the luxCDABE genes parental plasmid, pDEW201 (Gonye et al. U.S. Patent Application Publication 20030219736). Thus, this gene fusion will report on expression of the yhcQ gene and accordingly any other genes cotranscribed with it. Plasmid pDEW655 was moved to E. coli strains MG1655 and DPD2433 by transformation, selecting for Ampicillin resistance to generate strains DPD2436 and DPD2437, respectively. The bioluminescent response of these two strains to pHBA was tested.
# [10] = test system: yhcRQP-luxCDABE gene fusion in strain DPD2436 (yhcS+); experiment: as above; assay type: cell-based, E. coli; conditions: LB pH 7.0, sodium salt
# Source text: as §4
smiles,measurement,setting,value
"O=C(O)c1ccc(O)cc1 [pHBA, para-hydroxybenzoic acid]",MIC,"E. coli DPD2444 (yhcP−); Escherichia coli, read-out: MIC, DPD2444 (yhcP−)",12.5 mM
same,defined as substrate of the YhcP efflux pump by this genetic test,E. coli DPD2444 (yhcP−); MIC difference at least 2-fold and rank at least 2,substrates of the YhcP efflux pump
same,MIC,"E. coli MG1655 (yhcP+); Escherichia coli, MG1655, read-out: MIC, MG1655 (yhcP+)",100 mM
same,Rank Diff,"E. coli MG1655 (yhcP+); score of pigment color for MG1655 at the MIC for DPD2444 (0 = no color, 4 = full purple color)",4
same,expression of the yhcP gene upon treatment of E. coli cells,[1],highly upregulated
same,MIC,[2],25 mM
same,"pHBA zone of growth inhibition, mm diameter",[3],13.0 mm
same,"pHBA zone of growth inhibition, mm diameter",[4],9.0 mm
same,Growth in LB medium for 3 days at room temperature with pHBA,[5]; 25 mM pHBA sodium salt,++++
same,Growth in LB medium for 3 days at room temperature with pHBA,[5]; 50 mM pHBA sodium salt,++++
same,Growth in LB medium for 3 days at room temperature with pHBA,[5]; 100 mM pHBA sodium salt,−
same,Growth in LB medium for 3 days at room temperature with pHBA,[5]; 200 mM pHBA sodium salt,−
same,Growth in LB medium for 3 days at room temperature with pHBA,[6]; 25 mM pHBA sodium salt,++++
same,Growth in LB medium for 3 days at room temperature with pHBA,[6]; 50 mM pHBA sodium salt,+
same,Growth in LB medium for 3 days at room temperature with pHBA,[6]; 100 mM pHBA sodium salt,−
same,Growth in LB medium for 3 days at room temperature with pHBA,[6]; 200 mM pHBA sodium salt,−
same,Growth in LB medium for 3 days at room temperature with pHBA,[7]; 25 mM pHBA sodium salt,++++
same,Growth in LB medium for 3 days at room temperature with pHBA,[7]; 50 mM pHBA sodium salt,++++
same,Growth in LB medium for 3 days at room temperature with pHBA,[7]; 100 mM pHBA sodium salt,+
same,Growth in LB medium for 3 days at room temperature with pHBA,[7]; 200 mM pHBA sodium salt,−
same,Growth in LB medium for 3 days at room temperature with pHBA,[8]; 25 mM pHBA sodium salt,++++
same,Growth in LB medium for 3 days at room temperature with pHBA,[8]; 50 mM pHBA sodium salt,++++
same,Growth in LB medium for 3 days at room temperature with pHBA,[8]; 100 mM pHBA sodium salt,+++
same,Growth in LB medium for 3 days at room temperature with pHBA,[8]; 200 mM pHBA sodium salt,−
same,RLU,"[9]; [pHBA] 1.6, thirty minutes",1.02 RLU
same,RLU,"[9]; [pHBA] 3.1, thirty minutes",1.16 RLU
same,RLU,"[9]; [pHBA] 6.2, thirty minutes",1.42 RLU
same,RLU,"[9]; [pHBA] 12.5, thirty minutes",1.82 RLU
same,RLU,"[9]; [pHBA] 25, thirty minutes",1.59 RLU
same,RLU,"[9]; [pHBA] 50, thirty minutes",0.614 RLU
same,RLU,"[9]; [pHBA] 100, thirty minutes",0.045 RLU
same,RLU,"[10]; [pHBA] 1.6, thirty minutes",6.72 RLU
same,RLU,"[10]; [pHBA] 3.1, thirty minutes",10.2 RLU
same,RLU,"[10]; [pHBA] 6.2, thirty minutes",16.2 RLU
same,RLU,"[10]; [pHBA] 12.5, thirty minutes",30.8 RLU
same,RLU,"[10]; [pHBA] 25, thirty minutes",66.6 RLU
same,RLU,"[10]; [pHBA] 50, thirty minutes",91.7 RLU
same,RLU,"[10]; [pHBA] 100, thirty minutes",0.437 RLU
